In US3982931A, “N,N-di-sec.butyl-benzamide herbicides” (priority 1967, dated 1976):

Legend:
[1] = test system: amaranthus retroflexus L.; experiment: herbicidal activity, soil treatment one day after sowing; format: in vivo
pisum sativum L. (pea) = experiment: activity on agrarian species, soil treatment one day after sowing; format: in vivo
artemisia vulgaris L. = experiment: herbicidal activity, soil treatment one day after sowing; format: in vivo
rice = experiment: Example 2 basin test, rice-field soil, granular composition; format: in vivo; details: 4 - 6 - 8 kg/ha
Method: (§1) Into 2 sq.m. basins containing rice-field soil were sown rice and Echinocloa crus-galli. After having submerged the soil with 10 cm of water, treatments were carried out by distributing uniformly on the soil a granular composition containing 5% of PA 300 and 95% of bentonite in doses equal to 0 - 4 - 6 - 8 kg of active principle per hectar.

Echinocloa crus-galli = experiment: as above; format: in vivo; details: 4 - 6 - 8 kg/ha
Method: as §1

[2] = test system: phaseolus vulgaris (bean); experiment: activity on agrarian species, soil treatment one day after sowing; format: in vivo, Phaseolus vulgaris L.
How it was run: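 Activity on bean was rated from 0 (no difference from control) to 4 (germination prevented or plants fully contained at emergence), with both classes noted for intermediate effects. Soil treatment one day after sowing, at rates of 1, 3, 6, 8, 10, 12 and 14 kg/ha.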

zea mais L. (corn) = experiment: as above; format: in vivo
How it was run: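 Crop injury rated 0–4 relative to control, from no difference up to complete germination failure or arrest of emerging plants; in-between responses get both values. Product spread on soil at 1–14 kg/ha (1, 3, 6, 8, 10, 12, 14) one day post-sowing.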

[3] = test system: triticum vulgare L. (wheat); experiment: as above; format: in vivo
How it was run: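 Wheat effects rated against untreated control on a 0 (no difference) to 4 (no germination or emergence fully contained) scale, with two-class scores for intermediate activity. Application was to soil one day post-sowing at rates of 1, 3, 6, 8, 10, 12 and 14 kg/ha.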

setaria glauca L. = experiment: herbicidal activity, soil treatment one day after sowing; format: in vivo
chenopodium album L. = experiment: as above; format: in vivo
oryza sativa L. (rice) = experiment: activity on agrarian species, soil treatment one day after sowing; format: in vivo
How it was run: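 Activity scored 0 (no difference from control) to 4 (no germination or total containment of emerging plants), intermediates given both classes. Product spread on soil one day after sowing rice, at rates of 1, 3, 6, 8, 10, 12 and 14 kg/ha.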

vicia sativa L. = experiment: herbicidal activity, soil treatment one day after sowing; format: in vivo
How it was run: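 Pre-emergence soil treatment one day after sowing; activity scored visually on a […] scale against untreated control, from slight difference (1) to no germination or total containment at emergence (4); intermediate activity recorded as both classes, preeminent value first.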

avena sativa (oats) = experiment: activity on agrarian species, soil treatment one day after sowing; format: in vivo, Avena sativa L.
[4] = test system: echinocloa crus-galli R.S.; experiment: herbicidal activity, soil treatment one day after sowing; format: in vivo
[5] = toxicity towards warm-blooded animals, LD 50 per os on rat; details: in vivo, po

For CCC(C)N(C(=O)c1cc(Cl)cc(Cl)c1Cl)C(C)CC (stereo not drawn) [PA300, 2,3,5-trichloro-N,N-di-sec.butyl-benzamide], which “activity on A, 0-4 scale” value ([1]; 1 kg/ha) is on record?
The value was 0-1.

What about the “activity on A, 0-4 scale” value ([1]; 2 kg/ha) of the same compound?
The value was 1.

And the “activity on A, 0-4 scale” value ([1]; 4 kg/ha)?
The value was 1.

And the “activity on A, 0-4 scale” value ([1]; 6 kg/ha)?
Its value is 1.

And the “activity on L, 0-4 scale” value (pisum sativum L. (pea); 3 kg/ha)?
The value was 0.

And the “activity on L, 0-4 scale” value (pisum sativum L. (pea); 6 kg/ha)?
Its value is 0.

And the “activity on B, 0-4 scale” value (artemisia vulgaris L.; 1 kg/ha)?
Its value is 0-1.

And the “activity on B, 0-4 scale” value (artemisia vulgaris L.; 2 kg/ha)?
The value was 1-0.

And the “activity on B, 0-4 scale” value (artemisia vulgaris L.; 4 kg/ha)?
The value was 1.

What about the “activity on B, 0-4 scale” value (artemisia vulgaris L.; 6 kg/ha) of the same compound?
Its value is 1.

What about the development of rice (rice) of the same compound?
The development of rice was “the rice developed regularly”.

And the “development of Echinocloa crus-galli plants” value (Echinocloa crus-galli)?
The value was “no Echinocloa crus-galli plant developed”.

And the “activity on I, 0-4 scale” value ([2]; 3 kg/ha)?
Its value is 0.

What about the “activity on I, 0-4 scale” value ([2]; 6 kg/ha) of the same compound?
The value was 0.

What about the “activity on O, 0-4 scale” value (zea mais L. (corn); 3 kg/ha) of the same compound?
Its value is 0.

And the “activity on O, 0-4 scale” value (zea mais L. (corn); 6 kg/ha)?
The value was 0.

And the “activity on N, 0-4 scale” value ([3]; 3 kg/ha)?
The value was 0.

What about the “activity on N, 0-4 scale” value ([3]; 6 kg/ha) of the same compound?
Its value is 0.

What about the “activity on E, 0-4 scale” value (setaria glauca L.; 1 kg/ha) of the same compound?
Its value is 3-4.

What about the “activity on E, 0-4 scale” value (setaria glauca L.; 2 kg/ha) of the same compound?
The value was 4-3.

What about the “activity on E, 0-4 scale” value (setaria glauca L.; 4 kg/ha) of the same compound?
Its value is 4.

And the “activity on E, 0-4 scale” value (setaria glauca L.; 6 kg/ha)?
The value was 4.

What about the “activity on C, 0-4 scale” value (chenopodium album L.; 1 kg/ha) of the same compound?
Its value is 0-1.

And the “activity on C, 0-4 scale” value (chenopodium album L.; 2 kg/ha)?
The value was 1.

And the “activity on C, 0-4 scale” value (chenopodium album L.; 4 kg/ha)?
The value was 1-2.

And the “activity on C, 0-4 scale” value (chenopodium album L.; 6 kg/ha)?
The value was 1-2.

What about the “activity on P, 0-4 scale” value (oryza sativa L. (rice); 3 kg/ha) of the same compound?
Its value is 0.

What about the “activity on P, 0-4 scale” value (oryza sativa L. (rice); 6 kg/ha) of the same compound?
The value was 0.

And the “activity on F, 0-4 scale” value (vicia sativa L.; 1 kg/ha)?
Its value is 0.

And the “activity on F, 0-4 scale” value (vicia sativa L.; 2 kg/ha)?
The value was 0.

What about the “activity on F, 0-4 scale” value (vicia sativa L.; 4 kg/ha) of the same compound?
Its value is 0.

And the “activity on F, 0-4 scale” value (vicia sativa L.; 6 kg/ha)?
The value was 0.

What about the “activity on G, 0-4 scale” value (avena sativa (oats); 3 kg/ha) of the same compound?
The value was 0.

And the “activity on G, 0-4 scale” value (avena sativa (oats); 6 kg/ha)?
The value was 1.

What about the “activity on D, 0-4 scale” value ([4]; 1 kg/ha) of the same compound?
Its value is 3.

And the “activity on D, 0-4 scale” value ([4]; 2 kg/ha)?
Its value is 3-4.

What about the “activity on D, 0-4 scale” value ([4]; 4 kg/ha) of the same compound?
Its value is 4-3.

What about the “activity on D, 0-4 scale” value ([4]; 6 kg/ha) of the same compound?
The value was 4.

Which “activity on A, 0-4 scale” value ([1]; 6 kg/ha) does the source give for CCC(C)N(CC)C(=O)c1ccc(Cl)c(Cl)c1 (stereo not drawn) [PA631, 3,4-dichloro-N-ethyl,N-sec.butyl-benzamide] here?
The value was 2.

What about the “activity on B, 0-4 scale” value (artemisia vulgaris L.; 6 kg/ha) of the same compound?
Its value is 2.

And the “activity on E, 0-4 scale” value (setaria glauca L.; 6 kg/ha)?
Its value is 3.

And the “activity on C, 0-4 scale” value (chenopodium album L.; 6 kg/ha)?
Its value is 3.

And the “activity on F, 0-4 scale” value (vicia sativa L.; 6 kg/ha)?
The value was 0-1.

And the “activity on D, 0-4 scale” value ([4]; 6 kg/ha)?
Its value is 3.

And the LD50 [5]?
The LD50 was 930 mg/kg.
